In brackets after ≈: the same amount, converted by molar mass.
Tests used:
[1] = tested on: Malassezia restricta (IFM55992); experiment: Antifungal activity test, minimum fungicidal concentration (MFC100); format: cell-based; settings: 1 minute contact, MLNA medium 32° C. for 72 hours, read-out: Minimal fungicidal concentration (MFC100)
Protocol: A fungus of Malassezia (Malassezia restricta) that had been cultured on a CHROMagar (trademark) Malassezia/Candida raw medium (peptone, specialized enzyme-substrate mixture, chloramphenicol, olive oil, agar, manufactured by KANTO CHEMICAL CO., INC.) for 5 to 7 days was suspended in physiological saline to prepare so as to have an absorbance of 0.025 at 600 nm. The compound under test dissolved in DMSO was added thereto so as to have final concentrations of 200, 100, 50, and 25 ppm. 1 minute later, 10 μL of suspension and 10 mL of physiological saline were added to a syringe and stirred, and then the mixture was filtered by connecting to a 37 mm quality monitor (manufactured by Pall Corporation) and washed twice with 10 ml of physiological saline. The membrane filters were removed from the quality monitor, and placed and cultured on a Leeming & Notman agar Modified medium (MLNA medium) (peptone, glucose, yeast extract, dried bovine bile, glycerol, glycerin stearate, Tween 60, olive oil, agar) at 32° C. for 72 hours, and the presence or absence of the development of colonies was examined to determine a minimum fungicidal concentration MFC100). A minimum fungicidal concentration (MFC100) for Malassezia restricta (IFM55992) was determined in the same method as in Test Example 11 except that the hydrate crystal (Production Example 2) was used as the compound under test.

[2] = tested on: Malassezia pachydermatis (IFM56528); experiment: as above; format: cell-based; settings: 1 minute contact, culture 32° C. for 72 hours, read-out: Minimal fungicidal concentration (MFC100)
Protocol: Malassezia pachydermatis that had been cultured on a Sabouraud medium (1% peptone, 4% […], 1.5% agar) for 5 to 7 days was suspended in physiological saline to prepare so as to have an absorbance of 0.025 at 600 nm. The compound under test dissolved in DMSO was added thereto so as to have final concentrations of 200, 100, 50, and 25 ppm. 1 minute later, 10 μL of suspension and 10 mL of physiological saline were added to a syringe and stirred, and then the mixture was filtered and washed by connecting to a 37 mm quality monitor (manufactured by Pall Corporation) and washed. As such, membrane filters were permeated with the Sabouraud medium, culturing was performed at 32° C. for 72 hours, the presence or absence of the development of colonies was examined to determine a minimum fungicidal concentration (MFC100). A minimum fungicidal concentration (MFC100) for Malassezia pachydermatis (IFM56528) was determined in the same method as in Test Example 9 except that the hydrate crystal (Production Example 2) was used as the compound under test.

Moisture absorption test = format: physicochemical
Protocol: An anhydrous crystal sample was placed in a container (glass weighing bottle or paper bag) in such a manner that it was in direct contact with the damp. […] In addition, a sample for the hydrate crystal (Production Example 1) was also preserved at 60° C./80% RH, and the change in moisture content was observed through the change in weight or Karl Fischer moisture measurement.

[3] = tested on: Trichophyton rubrum (ATCCMYA4607); experiment: Antifungal activity test, minimum inhibitory concentration (MIC100); format: cell-based; settings: Sabouraud medium, 32° C. for 72 hours
Protocol: Trichophyton rubrum was cultured on a Sabouraud medium at 32° C. for 168 hours to form spores. Mycelia were peeled from a medium surface and collected into a tube, physiological saline solution (OTSUKA NORMAL SALINE; containing the equivalent of 9 g of sodium chloride in 1000 mL) was added thereto, and the entire mixture was mixed and dispersed with a disposable loop (Type 1 (1 μL)) to collect a spore suspension containing mycelia. The spore suspension containing mycelia was filtered through a cell strainer (+40 μm). Spores were collected from a filtrate by centrifugation (3500 rpm, 5 minutes), and washed twice with physiological saline to prepare a spore suspension (1×10^6 cells/mL). 10 μL of the spore suspension was inoculated into the Sabouraud medium to which the test compound dissolved in DMSO was added so as to have a predetermined concentration. Trichophyton rubrum was cultured at 32° C. for 72 hours, and then the presence or absence of the development of colonies was examined to determine a minimum inhibitory concentration (MIC100).
A minimum inhibitory concentration (MIC100) for Trichophyton rubrum (ATCCMYA4607) was determined in the same method as in Test Example 12 except that the hydrate crystal (Production Example 2) was used as the compound under test.

[4] = tested on: Microsporum canis (IFM63627); experiment: as above; format: cell-based; settings: Sabouraud medium, 32° C. for 72 hours
Protocol: Microsporum canis was cultured on a 1/10 Sabouraud medium at 32° C. for 168 hours to form spores. Then, 10 mL of physiological saline solution (OTSUKA NORMAL SALINE; containing the equivalent of 9 g of sodium chloride in 1000 mL) was directly added over the medium, and the surface was scraped with a disposable loop (Type 1 (1 μL) to collect a spore suspension containing mycelia. The spore suspension containing mycelia was filtered through a cell strainer (+40 μm). Spores were collected from a filtrate by centrifugation (3500 rpm, 5 minutes), and washed twice with physiological saline to prepare a spore suspension (1×10^7 cells/mL). 10 μL of the spore suspension was inoculated into a Sabouraud medium to which the compound under test dissolved in DMSO was added so as to have a predetermined concentration. Microsporum canis was cultured at 32° C. for 72 hours, and then the presence or absence of the development of colonies was examined to determine a minimum inhibitory concentration (MIC100).
A minimum inhibitory concentration (MIC100) for Microsporum canis (IFM63627) was determined in the same method as in Test Example 7 except that the hydrate crystal (Production Example 2) was used as the compound under test.

[5] = 40° C./75% RH, weighing bottle, 14 days
[6] = 40° C./75% RH, weighing bottle, 28 days
[7] = 40° C./75% RH, weighing bottle, 28 days, listed as Anhydrate crystal

- Moisture content (Moisture absorption test; 25° C./80% RH, paper bag, 0 days): 0.1%
- Weight change (Moisture absorption test; 25° C./80% RH, paper bag, 14 days): 0.6%
- Weight change (Moisture absorption test; 25° C./80% RH, paper bag, 28 days): 2.2%
- Weight change (Moisture absorption test; 25° C./80% RH, paper bag, 35 days): 3.3%
- Weight change (Moisture absorption test; 25° C./80% RH, paper bag, 43 days): 4.2%
- Weight change (Moisture absorption test; 25° C./80% RH, paper bag, 49 days): 4.7%
- Weight change (Moisture absorption test; 25° C./80% RH, paper bag, 49 days, listed as Anhydrate crystal): 4.7%
- Moisture content (Moisture absorption test; 40° C./75% RH, weighing bottle, 0 days): 0.1%
- Weight change (Moisture absorption test; 40° C./75% RH, weighing bottle, 7 days): 3.5%
- Moisture content (Moisture absorption test; [5]): 5.7%
- Weight change (Moisture absorption test; [5]): 5.0%
- Weight change (Moisture absorption test; 40° C./75% RH, weighing bottle, 21 days): 6.4%
- Moisture content (Moisture absorption test; [6]): 6.1%
- Weight change (Moisture absorption test; [6]): 6.7%
- Moisture content (Moisture absorption test; [7]): 6.1%
- Weight change (Moisture absorption test; [7]): 6.7%
- MIC [3]: 5 µg/mL (≈ 19.8 µM)
- MIC [4]: 5 µg/mL (≈ 19.8 µM)
Compound: Cc1ccc(-c2nc(C#N)[nH]c2Cl)cc1Cl [Anhydrous crystal, 5-chloro-4-(3-chloro-4-methylphenyl)-1H-imidazole-2-carbonitrile]
- MFC [1]: 200 µg/mL (≈ 793 µM)
- MFC [2]: 50 µg/mL (≈ 198 µM)

Reference: patent US20250026725A1, “HYDRATE CRYSTAL OF 5-CHLORO-4-(3-CHLORO-4- METHYLPHENYL)-1H-IMIDAZOLE-2-CARBONITRILE” (ISHIHARA SANGYO KAISHA, LTD., priority 2021, published 2025)
